Data: article PMC5155016 (Nature chemical biology, 2015)
Blank lines part the entries; values can stand above or below the molecule they belong to.

Legend:
IDH2 R172 U87MG = assay: IDH2 cellular 2-HG assay in R172 U87MG cells; format: cell-based; conditions: read-out: IDH2 IC50 R172 U87MG
IDH2 SW1353 cell 2-HG = target: T1, IDH2 SW1353 cell 2-HG (Homo sapiens, UniProt P48735, R172S); assay: IDH2 cellular 2-HG assay in SW1353 cells; format: cell-based; conditions: read-out: IDH2 IC50 SW1353 cell 2-HG
T1 sequence (P48735 40-452 R172S): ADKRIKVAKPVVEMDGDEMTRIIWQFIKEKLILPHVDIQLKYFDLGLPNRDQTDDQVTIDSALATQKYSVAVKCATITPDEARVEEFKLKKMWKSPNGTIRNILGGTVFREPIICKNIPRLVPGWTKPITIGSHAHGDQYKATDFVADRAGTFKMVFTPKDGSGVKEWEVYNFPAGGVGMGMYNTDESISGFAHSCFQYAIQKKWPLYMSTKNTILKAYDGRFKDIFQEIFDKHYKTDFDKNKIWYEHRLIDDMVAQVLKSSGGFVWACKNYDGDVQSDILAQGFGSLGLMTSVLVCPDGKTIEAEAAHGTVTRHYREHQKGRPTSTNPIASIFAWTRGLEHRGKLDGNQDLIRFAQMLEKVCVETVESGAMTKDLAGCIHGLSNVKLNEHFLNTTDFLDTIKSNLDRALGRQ

homodimeric R132H IDH1 = homodimeric R132H IDH1 (Homo sapiens, UniProt O75874, R132H); assay: Biochemical mechanism of inhibition analysis; conditions: by analogy with close analog
homodimeric R132H IDH1, sequence (O75874 whole entry R132H): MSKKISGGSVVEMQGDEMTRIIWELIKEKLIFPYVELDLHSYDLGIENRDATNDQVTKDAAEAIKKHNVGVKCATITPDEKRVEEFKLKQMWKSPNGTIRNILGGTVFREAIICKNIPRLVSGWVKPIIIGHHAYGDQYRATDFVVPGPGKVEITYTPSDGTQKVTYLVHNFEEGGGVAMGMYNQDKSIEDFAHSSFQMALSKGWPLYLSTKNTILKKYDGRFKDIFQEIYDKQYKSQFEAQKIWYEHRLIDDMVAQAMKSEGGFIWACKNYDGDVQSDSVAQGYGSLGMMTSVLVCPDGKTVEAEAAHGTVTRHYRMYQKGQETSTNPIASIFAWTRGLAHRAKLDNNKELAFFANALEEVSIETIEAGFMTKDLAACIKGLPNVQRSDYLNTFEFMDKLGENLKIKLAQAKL

[1] = test system: H3K9me2 in R132C IDH1 expressing HT-1080 cells; assay: Western blot of histone H3K9me2 in HT-1080 cells; format: cell-based, human; conditions: 48 hours of treatment
[2] = Stability of compounds in media; format: physicochemical
R132G IDH1 AML cells [3] = assay: Intracellular 2-HG in primary R132G IDH1 AML cells ex vivo; format: cell-based, human; conditions: 1.7 μM
R132G IDH1 AML cells [4] = assay: Cell cycle analysis; format: cell-based, human; conditions: 3 μM, 7 days
R132C IDH1 AML cells = assay: Cell cycle analysis; format: cell-based, human; conditions: 3 μM, 7 days
R132G IDH1 AML cells [5] = assay: Blast and G/M cell fractions by CD45/SSC flow cytometry; format: cell-based, human; conditions: 3 μM, 7 days
leukemic blasts = assay: Leukemic blast analysis including HLA-DR and c-Kit markers; format: cell-based, human
[6] = test system: R132G IDH1 mutant AML cells; assay: DNA methylation profiling by ERRBS; format: cell-based, human; conditions: q-value < 0.001, methylation difference ≥ 25%
[7] = test system: primary IDH1-mutant human AML cells in NSG mice; assay: Xenotransplantation of primary IDH1 mutant AML cells in NSG mice; format: in vivo
[8] = PAMPA, pH 7.4
[9] = target: R132C IDH1 mutant HT-1080 cells (Homo sapiens, UniProt O75874, R132C); assay: Quantification of intracellular 2-HG in HT-1080 cells; format: cell-based
R132C IDH1 mutant HT-1080 cells, sequence (O75874 whole entry R132C): as the sequence (O75874 whole entry R132H) above, with H132C counted along it
R132C IDH1 mutant HT-1080 cells, sequence (O75874 whole entry partner): as the sequence (O75874 whole entry R132H) above, with H132R counted along it

[10] = Pharmacokinetic analysis in mouse; format: in vivo; conditions: CD-1 mice, IP, 213 mg/kg, up to 24 hours
SEC = target: the molecule itself; assay: SEC

IC50 (IDH2 R172 U87MG): 7.94 µM
IC50 (IDH2 SW1353 cell 2-HG): 4.69 µM
Mechanism of action versus NADPH (homodimeric R132H IDH1): mixed vs NADPH
Mechanism of action versus αKG (homodimeric R132H IDH1): competitive vs αKG
Stability in media [2]: at least 14 days
AMP (artificial membrane permeability) [8]: 32.4 ×10⁻⁶ cm/s
AMP permeability class [8]: high
Molecule: C[C@H](O)c1cccc(NC(=O)c2nn(Cc3ccc(F)cc3)c3c2CN(C(=O)c2ccc[nH]2)C[C@H]3C)c1 [GSK321, (7R)-1-[(4-fluorophenyl)methyl]-N-{3-[(1S)-1-hydroxyethyl]phenyl}-7-methyl-5-(1H-pyrrol-2-ylcarbonyl)-4,5,6,7-tetrahydro-1H-pyrazolo[4,3c]pyridine-3-carboxamide]
Effect on histone H3K9me2 levels [1]: markedly decreased H3K9me2 levels
Inhibition of intracellular 2-HG (R132G IDH1 AML cells [3]): 78%
Cells in G1-phase, R132G IDH1 (R132G IDH1 AML cells [4]): 57.9 ± 6.9%
Quiescent (G0)-phase cells, R132G IDH1 (R132G IDH1 AML cells [4]): 36.7 ± 4.4%
Cells in G1-phase, R132C IDH1 (R132C IDH1 AML cells): 66.8 ± 12.0%
Quiescent (G0)-phase cells, R132C IDH1 (R132C IDH1 AML cells): 24.0 ± 11.8%
Fraction of leukemic blast cells (CD45low/+ SSClow) in comparison to DMSO (R132G IDH1 AML cells [5]): 0.7 ± 0.1 fold
Leukemic blasts, analysis including HLA-DR and c-Kit markers (leukemic blasts): 0.4 ± 0.2 fold
Hypermethylated CpG loci ([6]; 3 μM, 6 days, vs controls): 10153
Hypomethylated CpG loci ([6]; 3 μM, 6 days, vs controls): 18668
Hypermethylated regions (DMRs) ([6]; 1kb tiles): 1157
Hypomethylated regions (DMRs) ([6]; 1kb tiles): 2075
2HG in IDH1-mutant AML cells of treated mice ([7]; NSG mice): decrease in 2HG

EC50 [9]: 0.32 µM
Molecule: COc1c(C)cc(NC(=O)c2nn(Cc3ccc(F)cc3)c3c2CN(C(=O)c2ccc[nH]2)C[C@]3(C)C(N)=O)cc1C [GSK864]
Blood concentrations after intraperitoneal administration [10]: significant concentrations of GSK864 were maintained
Percentage of blast cells (SSClow CD45low/+) in bone marrow ([7]; NSG mice, 150 mg/kg): significant decrease in the percentage of blast cells
huCD45+ CD38+ cells in bone marrow ([7]; R132C or R132H IDH1 mutant engrafted NSG mice, 150 mg/kg): slightly increased numbers of huCD45^+ CD38^+ cells

B1: IDH2(40-452)Flag wild type (enzyme, human, UniProt P48735 40-452, looked up)
chain: ADKRIKVAKPVVEMDGDEMTRIIWQFIKEKLILPHVDIQLKYFDLGLPNRDQTDDQVTIDSALATQKYSVAVKCATITPDEARVEEFKLKKMWKSPNGTIRNILGGTVFREPIICKNIPRLVPGWTKPITIGRHAHGDQYKATDFVADRAGTFKMVFTPKDGSGVKEWEVYNFPAGGVGMGMYNTDESISGFAHSCFQYAIQKKWPLYMSTKNTILKAYDGRFKDIFQEIFDKHYKTDFDKNKIWYEHRLIDDMVAQVLKSSGGFVWACKNYDGDVQSDILAQGFGSLGLMTSVLVCPDGKTIEAEAAHGTVTRHYREHQKGRPTSTNPIASIFAWTRGLEHRGKLDGNQDLIRFAQMLEKVCVETVESGAMTKDLAGCIHGLSNVKLNEHFLNTTDFLDTIKSNLDRALGRQ
binding result (SEC): binds

B2: IDH2(40-452)Flag R172S (enzyme, human, UniProt P48735 40-452, looked up)
chain: ADKRIKVAKPVVEMDGDEMTRIIWQFIKEKLILPHVDIQLKYFDLGLPNRDQTDDQVTIDSALATQKYSVAVKCATITPDEARVEEFKLKKMWKSPNGTIRNILGGTVFREPIICKNIPRLVPGWTKPITIGSHAHGDQYKATDFVADRAGTFKMVFTPKDGSGVKEWEVYNFPAGGVGMGMYNTDESISGFAHSCFQYAIQKKWPLYMSTKNTILKAYDGRFKDIFQEIFDKHYKTDFDKNKIWYEHRLIDDMVAQVLKSSGGFVWACKNYDGDVQSDILAQGFGSLGLMTSVLVCPDGKTIEAEAAHGTVTRHYREHQKGRPTSTNPIASIFAWTRGLEHRGKLDGNQDLIRFAQMLEKVCVETVESGAMTKDLAGCIHGLSNVKLNEHFLNTTDFLDTIKSNLDRALGRQ
binding result (SEC): binds

B3: IDH2(40-452)Flag R140Q (enzyme, human, UniProt P48735 40-452, looked up)
chain: ADKRIKVAKPVVEMDGDEMTRIIWQFIKEKLILPHVDIQLKYFDLGLPNRDQTDDQVTIDSALATQKYSVAVKCATITPDEARVEEFKLKKMWKSPNGTIQNILGGTVFREPIICKNIPRLVPGWTKPITIGRHAHGDQYKATDFVADRAGTFKMVFTPKDGSGVKEWEVYNFPAGGVGMGMYNTDESISGFAHSCFQYAIQKKWPLYMSTKNTILKAYDGRFKDIFQEIFDKHYKTDFDKNKIWYEHRLIDDMVAQVLKSSGGFVWACKNYDGDVQSDILAQGFGSLGLMTSVLVCPDGKTIEAEAAHGTVTRHYREHQKGRPTSTNPIASIFAWTRGLEHRGKLDGNQDLIRFAQMLEKVCVETVESGAMTKDLAGCIHGLSNVKLNEHFLNTTDFLDTIKSNLDRALGRQ
binding result (SEC): binds
